Values quoted from earlier work as cited in article PMC10095747, “Modulatory Effects of Atractylodin and β-Eudesmol on Human Cytochrome P450 Enzymes: Potential Drug-Drug Interactions” (Molecules, 2023).

System: hCYP1A2
Design: method as in PMID 35139770
Settings: ligand-binding difference spectroscopy; cited from earlier work

## C=C1CCC[C@]2(C)CC[C@@H](C(C)(C)O)C[C@@H]12 [β-Eudesmol]
  binding to hCYP1A2: bound
